Assays:
[1] = biological target: Ribosomal protein S6 kinase alpha-1 (Homo sapiens, UniProt Q15418); conditions: at 10 µM
[2] = biological target: T1, Serine/threonine-protein kinase DCLK1 (Homo sapiens) (UniProt O15075); assay: Selectivity interaction (KinomeScan (DiscoverX)) EUB0001049a DCLK1; conditions: at 1 µM
T1 sequence (whole entry): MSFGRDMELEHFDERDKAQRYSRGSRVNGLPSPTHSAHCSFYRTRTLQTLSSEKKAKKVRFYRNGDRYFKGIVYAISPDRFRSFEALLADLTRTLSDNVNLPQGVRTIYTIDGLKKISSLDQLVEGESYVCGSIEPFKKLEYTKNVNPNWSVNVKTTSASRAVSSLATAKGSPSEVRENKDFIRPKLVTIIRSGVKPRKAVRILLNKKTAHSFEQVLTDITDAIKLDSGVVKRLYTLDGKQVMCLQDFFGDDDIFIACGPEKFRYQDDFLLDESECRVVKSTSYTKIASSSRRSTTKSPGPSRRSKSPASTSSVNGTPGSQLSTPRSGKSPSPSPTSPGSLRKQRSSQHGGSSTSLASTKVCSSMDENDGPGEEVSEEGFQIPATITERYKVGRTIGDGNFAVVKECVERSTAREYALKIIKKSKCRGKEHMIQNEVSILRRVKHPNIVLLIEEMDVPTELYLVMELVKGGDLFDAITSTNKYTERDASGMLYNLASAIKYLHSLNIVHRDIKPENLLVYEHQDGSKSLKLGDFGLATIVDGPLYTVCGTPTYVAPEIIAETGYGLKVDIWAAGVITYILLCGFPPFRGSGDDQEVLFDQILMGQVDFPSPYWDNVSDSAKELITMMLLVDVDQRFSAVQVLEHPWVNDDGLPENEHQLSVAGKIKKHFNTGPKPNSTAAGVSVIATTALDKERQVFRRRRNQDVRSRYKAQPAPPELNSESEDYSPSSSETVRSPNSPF

[3] = biological target: Diacylglycerol kinase beta (Homo sapiens) (UniProt Q9Y6T7); assay: Selectivity interaction (Kinase panel (literature)) EUB0001199aCl DGKB; conditions: at 1 µM
[4] = biological target: STE20-like serine/threonine-protein kinase (Homo sapiens, UniProt Q9H2G2); assay: Selectivity interaction (Competition-binding assay (DiscoverX)) EUB0000229b SLK
[5] = biological target: Mitogen-activated protein kinase kinase kinase kinase 1 (Homo sapiens) (UniProt Q92918); assay: Selectivity interaction (KinomeScan (DiscoverX)) EUB0001079a MAP4K1; conditions: at 1 µM
[6] = biological target: Mast/stem cell growth factor receptor Kit (Homo sapiens, UniProt P10721); assay: Selectivity interaction (KinomeScan (DiscoverX)) EUB0001079a KIT; conditions: at 1 µM
[7] = tested on: Hepatocyte growth factor receptor (Homo sapiens), P08581 [M1250T]; assay: (§1) Selectivity interaction (KinomeScan (DiscoverX)) EUB0000092b MET; conditions: at 10 µM
[8] = biological target: Hepatocyte growth factor receptor (Homo sapiens, UniProt P08581); assay: as §1; conditions: at 10 µM
[9] = tested on: Hepatocyte growth factor receptor (Homo sapiens), P08581 [Y1235D]; assay: as §1; conditions: at 10 µM
[10] = biological target: T2, Dual specificity mitogen-activated protein kinase kinase 7 (Homo sapiens) (UniProt O14733); assay: Selectivity interaction (Upstate Kinase Profiler service (Millipore)) EUB0000056c MAP2K7; conditions: at 1 µM
T2 sequence (whole entry): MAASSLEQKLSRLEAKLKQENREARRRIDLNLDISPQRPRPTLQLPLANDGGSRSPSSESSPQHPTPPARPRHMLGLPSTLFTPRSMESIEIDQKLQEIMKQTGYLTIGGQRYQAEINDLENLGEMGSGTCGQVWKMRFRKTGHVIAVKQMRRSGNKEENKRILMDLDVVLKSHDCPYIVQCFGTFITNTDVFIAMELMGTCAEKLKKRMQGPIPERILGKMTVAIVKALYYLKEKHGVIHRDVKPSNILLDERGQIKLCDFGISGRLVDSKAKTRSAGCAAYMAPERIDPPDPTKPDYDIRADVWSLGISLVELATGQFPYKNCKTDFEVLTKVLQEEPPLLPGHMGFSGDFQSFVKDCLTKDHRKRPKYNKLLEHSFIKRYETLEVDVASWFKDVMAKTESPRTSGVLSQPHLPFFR

[11] = biological target: T3, Cyclin-dependent kinase-like 5 (Homo sapiens) (UniProt O76039); assay: Selectivity interaction (KinomeScan (DiscoverX)) EUB0001619a CDKL5; conditions: at 1 µM
T3 sequence (whole entry): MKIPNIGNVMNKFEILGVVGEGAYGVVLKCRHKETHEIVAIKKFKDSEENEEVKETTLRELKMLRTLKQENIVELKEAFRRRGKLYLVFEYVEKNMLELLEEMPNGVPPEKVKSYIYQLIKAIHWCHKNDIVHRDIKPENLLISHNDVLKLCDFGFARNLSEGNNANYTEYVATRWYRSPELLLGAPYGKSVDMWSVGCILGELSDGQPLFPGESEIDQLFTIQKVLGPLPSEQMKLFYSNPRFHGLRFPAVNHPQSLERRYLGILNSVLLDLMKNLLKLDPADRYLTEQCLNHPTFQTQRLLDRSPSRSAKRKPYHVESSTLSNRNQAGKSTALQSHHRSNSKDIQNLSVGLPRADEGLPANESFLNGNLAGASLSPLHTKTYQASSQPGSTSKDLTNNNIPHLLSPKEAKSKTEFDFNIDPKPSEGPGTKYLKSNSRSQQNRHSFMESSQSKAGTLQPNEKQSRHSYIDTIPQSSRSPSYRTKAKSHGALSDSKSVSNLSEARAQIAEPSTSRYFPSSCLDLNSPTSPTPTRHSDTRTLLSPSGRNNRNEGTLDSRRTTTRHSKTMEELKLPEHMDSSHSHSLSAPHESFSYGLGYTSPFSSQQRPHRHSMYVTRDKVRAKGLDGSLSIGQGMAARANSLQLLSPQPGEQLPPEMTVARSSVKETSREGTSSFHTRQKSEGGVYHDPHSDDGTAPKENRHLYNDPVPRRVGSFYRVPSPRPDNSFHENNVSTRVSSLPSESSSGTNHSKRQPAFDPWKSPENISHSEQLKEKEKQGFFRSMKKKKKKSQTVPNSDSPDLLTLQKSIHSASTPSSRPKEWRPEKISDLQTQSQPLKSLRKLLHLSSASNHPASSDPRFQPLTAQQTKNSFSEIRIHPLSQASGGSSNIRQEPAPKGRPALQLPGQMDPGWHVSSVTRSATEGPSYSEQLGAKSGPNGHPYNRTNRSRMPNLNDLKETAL

[12] = biological target: Maternal embryonic leucine zipper kinase (Homo sapiens) (UniProt Q14680); assay: Selectivity interaction (KinomeScan (DiscoverX)) EUB0001619a MELK; conditions: at 1 µM
[13] = biological target: Glycogen synthase kinase-3 beta (Homo sapiens, UniProt P49841); assay: Selectivity interaction (ActivX KiNativ screen (ex vivo kinase selectivity in human PBMCs)) EUB0001619a GSK3B; format: cell-based; conditions: PBMC, at 1 µM
[14] = biological target: Serine/threonine-protein kinase/endoribonuclease IRE1 (Homo sapiens) (UniProt O75460); assay: Selectivity interaction (KinomeScan (DiscoverX)) EUB0001619a ERN1; conditions: at 1 µM
[15] = biological target: Protein kinase C alpha type (Homo sapiens, UniProt P17252); assay: Selectivity interaction (SelectScreen profiling (Invitrogen)) EUB0000607a PRKCA; conditions: at 2 µM

Chain of Glycogen synthase kinase-3 beta (P49841 whole entry, looked up): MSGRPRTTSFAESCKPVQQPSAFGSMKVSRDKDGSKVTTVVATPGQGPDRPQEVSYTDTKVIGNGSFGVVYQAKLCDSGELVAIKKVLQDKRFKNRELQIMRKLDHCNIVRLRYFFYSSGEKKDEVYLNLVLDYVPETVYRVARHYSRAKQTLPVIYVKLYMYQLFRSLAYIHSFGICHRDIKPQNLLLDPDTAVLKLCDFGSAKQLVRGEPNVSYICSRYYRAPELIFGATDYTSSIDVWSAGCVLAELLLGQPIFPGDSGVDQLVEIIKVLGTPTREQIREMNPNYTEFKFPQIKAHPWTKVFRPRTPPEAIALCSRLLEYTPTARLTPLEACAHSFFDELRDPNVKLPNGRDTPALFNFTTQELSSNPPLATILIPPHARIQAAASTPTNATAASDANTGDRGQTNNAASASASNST
Chain of Mitogen-activated protein kinase kinase kinase kinase 1 (Homo sapiens) (Q92918 whole entry, looked up): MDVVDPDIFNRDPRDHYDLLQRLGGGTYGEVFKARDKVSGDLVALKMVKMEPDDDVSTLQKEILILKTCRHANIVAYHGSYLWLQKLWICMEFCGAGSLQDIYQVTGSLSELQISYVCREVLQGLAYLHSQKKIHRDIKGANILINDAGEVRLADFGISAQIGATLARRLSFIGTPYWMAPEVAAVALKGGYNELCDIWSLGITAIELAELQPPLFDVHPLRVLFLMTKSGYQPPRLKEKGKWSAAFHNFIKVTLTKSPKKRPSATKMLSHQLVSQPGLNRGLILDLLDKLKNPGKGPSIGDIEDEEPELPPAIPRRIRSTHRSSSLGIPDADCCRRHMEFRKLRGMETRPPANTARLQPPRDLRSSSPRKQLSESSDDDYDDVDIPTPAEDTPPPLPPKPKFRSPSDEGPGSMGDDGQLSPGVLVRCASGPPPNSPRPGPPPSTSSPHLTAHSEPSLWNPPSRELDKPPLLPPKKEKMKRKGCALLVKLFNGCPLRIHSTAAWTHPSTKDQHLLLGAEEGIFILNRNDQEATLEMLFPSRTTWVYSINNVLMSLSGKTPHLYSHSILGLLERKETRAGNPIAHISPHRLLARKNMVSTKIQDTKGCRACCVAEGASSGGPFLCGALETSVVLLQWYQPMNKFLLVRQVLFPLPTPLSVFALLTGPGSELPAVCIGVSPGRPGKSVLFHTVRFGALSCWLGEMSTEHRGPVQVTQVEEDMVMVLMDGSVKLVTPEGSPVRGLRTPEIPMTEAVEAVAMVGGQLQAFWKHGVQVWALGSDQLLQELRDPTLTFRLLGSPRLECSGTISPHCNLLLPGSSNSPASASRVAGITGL
Chain of Serine/threonine-protein kinase/endoribonuclease IRE1 (Homo sapiens) (O75460 19-977 limits assumed): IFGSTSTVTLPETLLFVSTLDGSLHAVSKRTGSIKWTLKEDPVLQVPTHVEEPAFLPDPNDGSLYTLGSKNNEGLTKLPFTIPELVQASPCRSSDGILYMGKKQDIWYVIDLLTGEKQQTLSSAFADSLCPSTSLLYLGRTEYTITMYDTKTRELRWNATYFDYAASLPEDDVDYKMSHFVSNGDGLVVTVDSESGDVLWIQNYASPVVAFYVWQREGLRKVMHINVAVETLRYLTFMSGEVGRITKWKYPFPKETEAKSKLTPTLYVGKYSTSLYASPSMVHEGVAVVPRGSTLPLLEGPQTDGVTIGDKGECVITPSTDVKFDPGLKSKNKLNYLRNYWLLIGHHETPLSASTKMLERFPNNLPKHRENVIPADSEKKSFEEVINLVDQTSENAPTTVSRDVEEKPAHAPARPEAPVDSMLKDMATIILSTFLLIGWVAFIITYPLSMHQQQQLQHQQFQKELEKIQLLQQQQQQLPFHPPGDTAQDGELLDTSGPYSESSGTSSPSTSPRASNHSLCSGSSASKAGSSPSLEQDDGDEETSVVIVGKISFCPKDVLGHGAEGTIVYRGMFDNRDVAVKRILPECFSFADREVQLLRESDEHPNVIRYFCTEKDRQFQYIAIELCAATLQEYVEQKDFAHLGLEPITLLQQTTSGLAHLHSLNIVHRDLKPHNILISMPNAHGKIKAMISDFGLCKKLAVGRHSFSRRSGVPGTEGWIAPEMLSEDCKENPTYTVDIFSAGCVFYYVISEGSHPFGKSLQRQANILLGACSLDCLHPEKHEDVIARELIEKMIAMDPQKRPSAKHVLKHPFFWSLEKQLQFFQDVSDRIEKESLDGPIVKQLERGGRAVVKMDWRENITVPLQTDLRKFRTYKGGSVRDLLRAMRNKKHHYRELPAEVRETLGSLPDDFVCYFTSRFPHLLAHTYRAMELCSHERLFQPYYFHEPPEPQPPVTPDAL
Chain of Maternal embryonic leucine zipper kinase (Homo sapiens) (Q14680 whole entry, looked up): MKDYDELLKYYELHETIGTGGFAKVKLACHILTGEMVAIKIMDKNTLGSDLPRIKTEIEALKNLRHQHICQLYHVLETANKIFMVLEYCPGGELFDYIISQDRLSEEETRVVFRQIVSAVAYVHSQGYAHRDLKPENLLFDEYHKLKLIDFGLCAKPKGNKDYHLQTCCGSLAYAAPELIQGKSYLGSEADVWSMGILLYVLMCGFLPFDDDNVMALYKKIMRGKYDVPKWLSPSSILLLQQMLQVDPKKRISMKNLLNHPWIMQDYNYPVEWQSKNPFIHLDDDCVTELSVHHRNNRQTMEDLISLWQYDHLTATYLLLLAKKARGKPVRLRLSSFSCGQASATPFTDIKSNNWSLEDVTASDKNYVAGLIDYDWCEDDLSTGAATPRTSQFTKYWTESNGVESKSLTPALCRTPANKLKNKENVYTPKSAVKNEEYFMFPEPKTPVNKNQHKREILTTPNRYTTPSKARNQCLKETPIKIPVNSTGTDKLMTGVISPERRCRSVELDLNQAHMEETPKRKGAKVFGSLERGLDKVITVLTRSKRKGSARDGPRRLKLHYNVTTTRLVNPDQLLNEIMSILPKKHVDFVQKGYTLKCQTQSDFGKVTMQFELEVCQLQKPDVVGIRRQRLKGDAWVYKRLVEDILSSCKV
Chain of Hepatocyte growth factor receptor (P08581 whole entry): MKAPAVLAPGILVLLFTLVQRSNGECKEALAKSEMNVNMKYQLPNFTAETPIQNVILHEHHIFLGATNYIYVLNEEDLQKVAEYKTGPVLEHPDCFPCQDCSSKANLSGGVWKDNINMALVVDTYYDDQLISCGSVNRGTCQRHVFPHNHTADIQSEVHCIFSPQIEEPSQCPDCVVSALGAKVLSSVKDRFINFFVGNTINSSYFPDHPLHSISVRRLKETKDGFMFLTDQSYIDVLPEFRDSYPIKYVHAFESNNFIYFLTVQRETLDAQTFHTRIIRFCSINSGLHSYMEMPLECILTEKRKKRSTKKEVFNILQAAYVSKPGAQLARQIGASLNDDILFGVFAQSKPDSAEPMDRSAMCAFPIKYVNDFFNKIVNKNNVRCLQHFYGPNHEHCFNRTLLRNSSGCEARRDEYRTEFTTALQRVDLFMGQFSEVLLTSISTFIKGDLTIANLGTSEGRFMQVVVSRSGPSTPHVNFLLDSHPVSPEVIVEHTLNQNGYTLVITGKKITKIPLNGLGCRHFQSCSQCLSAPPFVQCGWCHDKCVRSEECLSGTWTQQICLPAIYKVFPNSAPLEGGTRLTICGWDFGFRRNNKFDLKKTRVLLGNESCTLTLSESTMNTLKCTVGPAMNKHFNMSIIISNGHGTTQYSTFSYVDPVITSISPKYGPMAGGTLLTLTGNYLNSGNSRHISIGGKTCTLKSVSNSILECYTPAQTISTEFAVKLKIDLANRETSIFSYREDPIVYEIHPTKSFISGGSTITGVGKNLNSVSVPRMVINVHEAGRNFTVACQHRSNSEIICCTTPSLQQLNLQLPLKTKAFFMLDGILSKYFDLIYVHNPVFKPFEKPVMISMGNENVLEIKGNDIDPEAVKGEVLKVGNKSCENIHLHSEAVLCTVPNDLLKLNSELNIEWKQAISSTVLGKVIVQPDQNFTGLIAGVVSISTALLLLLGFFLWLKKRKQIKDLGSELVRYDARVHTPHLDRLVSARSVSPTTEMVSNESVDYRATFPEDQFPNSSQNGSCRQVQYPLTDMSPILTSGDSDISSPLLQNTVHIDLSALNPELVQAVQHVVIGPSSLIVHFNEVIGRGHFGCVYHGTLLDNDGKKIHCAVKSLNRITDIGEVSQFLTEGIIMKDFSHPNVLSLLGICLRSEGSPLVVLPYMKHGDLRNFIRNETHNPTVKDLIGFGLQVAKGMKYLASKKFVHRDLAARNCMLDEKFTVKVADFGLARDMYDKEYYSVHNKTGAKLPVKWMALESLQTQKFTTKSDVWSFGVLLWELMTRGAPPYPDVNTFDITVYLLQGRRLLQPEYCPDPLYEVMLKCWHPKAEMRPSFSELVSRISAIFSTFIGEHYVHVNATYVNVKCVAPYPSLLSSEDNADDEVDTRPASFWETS
Chain of Ribosomal protein S6 kinase alpha-1 (Q15418 whole entry): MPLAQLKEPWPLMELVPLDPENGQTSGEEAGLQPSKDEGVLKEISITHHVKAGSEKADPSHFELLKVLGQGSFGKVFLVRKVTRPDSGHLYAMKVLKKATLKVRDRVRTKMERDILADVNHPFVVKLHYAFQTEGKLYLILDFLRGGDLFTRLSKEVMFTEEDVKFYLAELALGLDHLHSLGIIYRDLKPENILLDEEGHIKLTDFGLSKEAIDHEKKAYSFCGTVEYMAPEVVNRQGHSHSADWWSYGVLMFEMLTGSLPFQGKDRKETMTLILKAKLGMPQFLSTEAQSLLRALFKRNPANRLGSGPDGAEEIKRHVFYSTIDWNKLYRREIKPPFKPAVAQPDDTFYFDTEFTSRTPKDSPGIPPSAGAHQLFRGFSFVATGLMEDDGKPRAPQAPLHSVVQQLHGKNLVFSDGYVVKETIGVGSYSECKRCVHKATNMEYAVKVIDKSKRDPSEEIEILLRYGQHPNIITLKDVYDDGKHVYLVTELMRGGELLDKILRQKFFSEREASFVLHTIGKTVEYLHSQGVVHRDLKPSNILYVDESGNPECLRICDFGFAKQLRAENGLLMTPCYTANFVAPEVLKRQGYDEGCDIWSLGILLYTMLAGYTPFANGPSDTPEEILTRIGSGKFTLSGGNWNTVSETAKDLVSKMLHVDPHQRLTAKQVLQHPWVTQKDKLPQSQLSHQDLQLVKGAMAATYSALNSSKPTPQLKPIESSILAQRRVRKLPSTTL

Compound `Cc1cc([C@@H](C)Nc2ccccc2C(=O)O)c2nc(N3CCOCC3)cc(=O)n2c1` [AZD-6482] has a % of control [1] of 84%.
`COc1cc(Nc2nc(C)cc(-c3cnn4nc(OC)ccc34)n2)cc(C(F)(F)F)c1` was tested, and the % of control [2] was 69%.
`CN1Cc2nccc(-c3cn(C)nc3-c3ccc(F)cc3)c2C1=O` showed a % of inhibition [3] of -9%.
With `COc1cc(N(C)c2ccnc3ccc(C(F)(F)F)cc23)cc(OC)c1OC` the Kd [4] was greater than 10 µM.
With `Nc1cnc(N2CCc3cc(S(=O)(=O)Nc4c(F)cc(Cl)cc4F)cc(N4CCCC4=O)c32)nc1` [TP-020n] the % of control [5] was 83% and the % of control [6] was 100%.
For `CCC(=O)N1CCN(c2ccc(-n3c(=O)ccc4cnc5ccc(-c6cnc7ccccc7c6)cc5c43)cc2C(F)(F)F)CC1`, the % of control [7] was 79%, the % of control [8] was 84% and the % of control [9] was 100%.
In the case of `Cc1ccc(-c2ccc3c(ccc4sc5c(c43)NC[C@@H](C)NC5=O)n2)cn1`, the % of inhibition [10] is reported as -8%.
For `N#Cc1cccc(-c2c[nH]c3ncnc(N4CCOCC4)c23)c1`, the % of control [11] was 100%, the % of control [12] was 69% and the % of inhibition [13] was 7%. The % of control [14] was 74%.
For `CNC(=O)Nc1ccc(-c2nc(N3CC4CCC(C3)O4)c3cnn(C4CCC5(CC4)OCCO5)c3n2)cc1`, the % of inhibition [15] was 10%.

Source: ChEMBL document CHEMBL5465560, “Selectivity Literature for EUbOPEN Chemogenomic Library” (2024)
